We go through ten compounds from US10981926B2 (Janssen Pharmaceutica NV, priority 2016, dated 2021).

In one experiment the test system is rGABA-gated Cl− channel. As to the kind of experiment: GABA-Gated Cl Channel Antagonist Radioligand Binding Assay. Also noted: species or system rat. Particulars: 10 μM single point, [35S]-TBPS, cerebral cortex membrane homogenates. The procedure, abridged: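 Rat cerebral cortex membranes (120 μg protein) incubated 120 min at 22° C with 3 nM […] in 50 mM Na2HPO4/KH2PO4 pH 7.4, 500 mM NaCl; nonspecific binding defined with 20 μM picrotoxinin. Bound label counted after filtration; values are percent inhibition of specific binding at 10 μM compound.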

Experiment [1] has as its target T1, wild-type Androgen Receptor (AR-wt) (Homo sapiens (Human), UniProt P10275). Put plainly: LNCaP-AR-wt AG reporter assay (agonist mode). Particulars: for EC50: agonist mode, pEC50 = −Log10(EC50 in Molar), read-out: LNCaP-AR-wt AG pEC50 (converted); for Emax: maximum % stimulation (agonist response) over the tested concentration range, read-out: LNCaP-AR-wt AG MAX % Stim. It counts as cell-based. In general terms: A reporter such as luciferase makes a cellular process visible.

Experiment [2] has as its target T2, F876L mutant Androgen Receptor (AR-F876L) (Homo sapiens (Human), UniProt P10275, F877L). As to the kind of experiment: LNCaP-AR-F876L AG reporter assay (agonist mode). Type of experiment: cell-based. Particulars: for EC50: agonist mode, pEC50 = −Log10(EC50 in Molar), read-out: LNCaP-AR-F876L AG pEC50 (converted); for Emax: maximum % stimulation (agonist response) over the tested concentration range, read-out: LNCaP-AR-F876L AG MAX % Stim.

Experiment [3] concerns the target T1, wild-type Androgen Receptor (AR-wt). Put plainly: LNCaP-AR-wt ANT reporter assay (antagonist mode). It counts as cell-based. Conditions: for IC50: read-out: LNCaP-AR-wt ANT pIC50 (converted); for Emax: maximum % inhibition of R1881 control response over the tested concentration range, read-out: LNCaP-AR-wt ANT MAX % Inh.
The target in experiment [4] is T2, F876L mutant Androgen Receptor (AR-F876L). As to the kind of experiment: LNCaP-AR-F876L ANT reporter assay (antagonist mode). Type of experiment: cell-based. Conditions: for IC50: read-out: LNCaP-AR-F876L ANT pIC50 (converted); for Emax: maximum % inhibition of R1881 control response over the tested concentration range, read-out: LNCaP-AR-F876L ANT MAX % Inh.
[5] abbreviates: antagonist mode, pIC50 = −Log10(IC50 in Molar).

T1 sequence (P10275 whole entry): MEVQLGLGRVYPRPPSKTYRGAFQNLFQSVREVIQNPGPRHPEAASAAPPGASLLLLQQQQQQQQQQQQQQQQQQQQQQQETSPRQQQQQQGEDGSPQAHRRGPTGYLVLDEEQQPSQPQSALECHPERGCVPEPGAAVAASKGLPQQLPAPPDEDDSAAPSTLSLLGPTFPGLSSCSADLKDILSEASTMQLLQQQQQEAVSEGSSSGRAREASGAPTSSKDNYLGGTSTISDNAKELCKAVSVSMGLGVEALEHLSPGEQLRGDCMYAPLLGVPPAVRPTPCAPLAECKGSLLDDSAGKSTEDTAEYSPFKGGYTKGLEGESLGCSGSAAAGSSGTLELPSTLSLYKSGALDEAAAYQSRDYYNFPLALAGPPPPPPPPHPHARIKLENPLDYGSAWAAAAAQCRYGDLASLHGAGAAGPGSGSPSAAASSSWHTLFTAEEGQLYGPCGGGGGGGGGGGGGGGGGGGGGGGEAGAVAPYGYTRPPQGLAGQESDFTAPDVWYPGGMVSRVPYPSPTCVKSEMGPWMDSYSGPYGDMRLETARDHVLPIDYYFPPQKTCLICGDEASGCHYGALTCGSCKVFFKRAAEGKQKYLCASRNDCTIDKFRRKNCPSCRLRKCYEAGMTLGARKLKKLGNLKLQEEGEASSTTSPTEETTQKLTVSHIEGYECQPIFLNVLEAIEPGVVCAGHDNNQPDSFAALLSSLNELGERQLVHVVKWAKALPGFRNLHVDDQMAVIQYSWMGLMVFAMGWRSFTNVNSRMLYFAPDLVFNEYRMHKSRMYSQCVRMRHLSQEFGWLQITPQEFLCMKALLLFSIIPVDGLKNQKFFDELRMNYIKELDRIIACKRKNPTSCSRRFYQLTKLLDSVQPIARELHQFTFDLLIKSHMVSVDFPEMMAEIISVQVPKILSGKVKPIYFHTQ
T2 sequence (P10275 whole entry F877L): as the sequence (P10275 whole entry) above, with F877L counted along it

Take `Cc1cc(N2C(=O)C3(CCC3)N(c3ccc(OC4CCN(CC(F)(F)F)CC4)nc3)C2=S)cnc1C#N` [Cpd 62, 3-methyl-5-[5-oxo-7-thioxo-8-[6-[[1-(2,2,2-trifluoroethyl)-4-piperidyl]oxy]-3-pyridyl]-6,8-diazaspiro[3.4]octan-6-yl]pyridine-2-carbonitrile]: in the experiment on rGABA-gated Cl− channel, the “rGABA-gated Cl− channel % inh @10 μM” value is reported as 61.0%. The EC50 in experiment [1] and in experiment [2] was > 15100 nM throughout. Besides, the Emax stood at 0.5% in experiment [1], 0.2% in experiment [2], 100% in experiment [3] and 98.4% in experiment [4]. The IC50 in experiment [3] (setting [5]) was 38 nM; in experiment [4] (setting [5]), 26.9 nM.

Take `CN1CCC(CNC(=O)c2ccc(N3C(=S)N(c4cnc(C#N)c(C(F)(F)F)c4)C(=O)C34CCC4)cc2)CC1` [Cpd 72, 4-[6-[6-cyano-5-(trifluoromethyl)-3-pyridyl]-5-oxo-7-thioxo-6,8-diazaspiro[3.4]octan-8-yl]-N-[(1-methyl-4-piperidyl)methyl]benzamide]: the “rGABA-gated Cl− channel % inh @10 μM” value in the experiment on rGABA-gated Cl− channel amounted to 20.0%. Further, the EC50 in experiment [1] and in experiment [2] was > 15100 nM throughout. Further, the Emax is -0.1% in experiment [1], 0% in experiment [2], 101% in experiment [3] and 100% in experiment [4]. Besides, the results for the IC50 in experiment [3] (setting [5]) and in experiment [4] (setting [5]) were 275 nM and 174 nM, respectively.

For `CN1CCC(Oc2ccc(N3C(=S)N(c4cnc(C#N)c(C(F)(F)F)c4)C(=O)C34CCC4)cn2)CC1` [Cpd 1, 5-[8-[6-[(1-methyl-4-piperidyl)oxy]-3-pyridyl]-5-oxo-7-thioxo-6,8-diazaspiro[3.4]octan-6-yl]-3-(trifluoromethyl)pyridine-2-carbonitrile], in the experiment on rGABA-gated Cl− channel, the “rGABA-gated Cl− channel % inh @10 μM” value is 6.3%. The EC50 in experiment [1] and in experiment [2] was > 15100 nM each time. In addition, the Emax in experiment [1] was -0.1%; in experiment [2] it was 0.1%; in experiment [3], 101%; in experiment [4], 101%. Further, the “LNCaP-AR-wt ANT pIC50” value in experiment [3] (setting [5]) is 6.94. Moreover, in experiment [4] (setting [5]), the “LNCaP-AR-F876L ANT pIC50” value was determined as 7.07.

With `N#Cc1ncc(N2C(=O)C3(CCC3)N(c3ccc(OCCN4CCC5(CCOC5)CC4)cc3)C2=S)cc1C(F)(F)F` [Cpd 82, 5-[8-[4-[2-(3-oxa-8-azaspiro[4.5]decan-8-yl)ethoxy]phenyl]-5-oxo-7-thioxo-6,8-diazaspiro[3.4]octan-6-yl]-3-(trifluoromethyl)pyridine-2-carbonitrile], the “rGABA-gated Cl− channel % inh @10 μM” value with rGABA-gated Cl− channel is on record as 36.7%. Besides, the EC50 in experiment [1] and in experiment [2] was > 15100 nM in each case. The Emax in experiment [1] was determined as 0.4%; in experiment [2] it was 0.8%; in experiment [3] it was 98.7%; in experiment [4] it was 97.5%. Also, the figures for the IC50 in experiment [3] (setting [5]) and in experiment [4] (setting [5]) were 155 nM and 100 nM, respectively.

`N#Cc1ncc(N2C(=O)C3(CCC3)N(c3ccc(OC4CCN(CCF)CC4)cc3)C2=S)cc1C(F)(F)F` [Cpd 77, 5-[8-[4-[[1-(2-fluoroethyl)-4-piperidyl]oxy]phenyl]-5-oxo-7-thioxo-6,8-diazaspiro[3.4]octan-6-yl]-3-(trifluoromethyl)pyridine-2-carbonitrile]: in the experiment with rGABA-gated Cl− channel, the “rGABA-gated Cl− channel % inh @10 μM” value was 53.8%. Moreover, the EC50 in experiment [1] and in experiment [2] was > 15100 nM each time. Further, the Emax in experiment [1] was 0.2%; in experiment [2], 0.3%; in experiment [3], 102%; in experiment [4], 100%. Further, the IC50 in experiment [3] (setting [5]) is 37.2 nM; in experiment [4] (setting [5]) it was 30.9 nM.

For the compound `N#Cc1ncc(N2C(=O)C3(CCC3)N(c3ccc(OCCN4CC5(COC5)C4)cc3)C2=S)cc1C(F)(F)F` [Cpd 105, 5-[8-[4-[2-(6-oxa-2-azaspiro[3.3]heptan-2-yl)ethoxy]phenyl]-5-oxo-7-thioxo-6,8-diazaspiro[3.4]octan-6-yl]-3-(trifluoromethyl)pyridine-2-carbonitrile], the “rGABA-gated Cl− channel % inh @10 μM” value in the experiment on rGABA-gated Cl− channel was determined as 23.9%. Moreover, the EC50 in experiment [1] and in experiment [2] was > 15100 nM throughout. In addition, the Emax in experiment [1] turned out to be 0.1%; in experiment [2], 0.8%; in experiment [3], 100%; in experiment [4], 97.6%. For the same compound, the IC50 in experiment [3] (setting [5]) was 123 nM; in experiment [4] (setting [5]), 66.1 nM.

Take `N#Cc1ncc(N2C(=O)C3(CCC3)N(c3ccc4nn(C5CCNCC5)cc4c3)C2=S)cc1C(F)(F)F` [Cpd 115, 5-[5-oxo-8-[2-(4-piperidyl)indazol-5-yl]-7-thioxo-6,8-diazaspiro[3.4]octan-6-yl]-3-(trifluoromethyl)pyridine-2-carbonitrile]: the “rGABA-gated Cl− channel % inh @10 μM” value with rGABA-gated Cl− channel amounted to 40.0%. For the same compound, the EC50 in experiment [1] and in experiment [2] was > 15100 nM each time. Also, the Emax in experiment [1] is -0.1%; in experiment [2], 0.1%; in experiment [3], 87%; in experiment [4], 104%. The IC50 in experiment [3] (setting [5]) is 575 nM; in experiment [4] (setting [5]) it was 288 nM.

In the case of `N#Cc1ncc(N2C(=O)C3(CCC3)N(c3ccc(OC4CCC(N)CC4)cc3)C2=S)cc1C(F)(F)F` (stereo not drawn) [Cpd 68, 5-[8-[4-(4-aminocyclohexoxy)phenyl]-5-oxo-7-thioxo-6,8-diazaspiro[3.4]octan-6-yl]-3-(trifluoromethyl)pyridine-2-carbonitrile], the “rGABA-gated Cl− channel % inh @10 μM” value in the experiment with rGABA-gated Cl− channel was found to be 34.9%. Also, the EC50 in experiment [1] and in experiment [2] was > 15100 nM throughout. Besides, the Emax in experiment [1] came out at 0.6%; in experiment [2] it was 0.4%; in experiment [3], 101%; in experiment [4], 99.7%. Moreover, the IC50 in experiment [3] (setting [5]) was 39.8 nM; in experiment [4] (setting [5]), 17.4 nM.

With `N#Cc1ncc(N2C(=O)C3(CCC3)N(c3ccc(O[C@H]4CCNC[C@@H]4F)cc3)C2=S)cc1C(F)(F)F` (racemic) [Cpd 95, 5-[8-[(3SR, 4SR)-4-[(3-fluoro-4-piperidyl)oxy]phenyl]-5-oxo-7-thioxo-6,8-diazaspiro[3.4]octan-6-yl]-3-(trifluoromethyl)pyridine-2-carbonitrile], the “rGABA-gated Cl− channel % inh @10 μM” value in the experiment on rGABA-gated Cl− channel came out at 26.5%. The EC50 in experiment [1] and in experiment [2] was > 15100 nM in each case. Also, the Emax in experiment [1] was 0.1%; in experiment [2], 0.3%; in experiment [3], 101%; in experiment [4], 99.7%. Also, the IC50 in experiment [3] (setting [5]) was 112 nM; in experiment [4] (setting [5]), 44.7 nM.

Take `N#Cc1ncc(N2C(=O)C3(CCC3)N(c3ccc4nn(CCO)cc4c3)C2=S)cc1C(F)(F)F` [Cpd 161, 5-[8-[2-(2-hydroxyethyl)indazol-5-yl]-5-oxo-7-thioxo-6,8-diazaspiro[3.4]octan-6-yl]-3-(trifluoromethyl)pyridine-2-carbonitrile]: in the experiment on rGABA-gated Cl− channel, the “rGABA-gated Cl− channel % inh @10 μM” value came out at 77.9%. Moreover, the EC50 in experiment [1] and in experiment [2] was > 15100 nM in each case. For the same compound, the Emax worked out at 0.2% in experiment [1], 0.3% in experiment [2], 97.2% in experiment [3] and 99.3% in experiment [4]. Also, the IC50 in experiment [3] (setting [5]) was 1050 nM; in experiment [4] (setting [5]), 468 nM.
